Key:
Assay type in all cases: cell-based
BRAF D594G = biological target: T1, BRAF D594G (Homo sapiens, UniProt P15056, D594G); experiment: BRAF HiBiT degradation assay, C-terminal HiBiT-tagged BRAF D594G overexpressed in HCT-116 BRAF−/− cells (clone 63), Nano-Glo HiBiT Lytic assay; details: BRAF D594G (Class 3), HCT-116 BRAF−/− cells; for DC50: DC50 at 50% degradation; for Dmax: observed Dmax relative to DMSO control
T1 construct: Horizon Discovery (HCT-116 BRAF−/− cells); host or cells: HCT-116 BRAF−/− cells, clone 63, lentiviral transduction
Outline: (§1)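 Degradation was read by Nano-Glo HiBiT lytic luminescence, normalised to DMSO-treated tagged cells with wildtype HCT-116 as background. Test cells were lentiviral clones of HCT-116 BRAF−/− carrying HiBiT-tagged mutants in RPMI/10% FBS, given compound at 0.01 nM–1 μM in duplicate. Outputs are the curve-fitted concentration giving 50% degradation and the maximal observed degradation.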

BRAF V600E = biological target: T2, BRAF V600E (Homo sapiens, UniProt P15056, V600E); experiment: BRAF HiBiT degradation assay, C-terminal HiBiT-tagged BRAF V600E A375 cells (clone 1F10), Nano-Glo HiBiT Lytic assay; details: A375 (BRAF V600E, Class 1); for DC50: DC50 at 50% degradation; for Dmax: A-375, observed Dmax, % protein degraded relative to DMSO control
T2 construct: endogenous C-terminal HiBiT fusion tag on BRAF V600E allele; endogenous in cells; host or cells: A375 clone 1F10 (CRISPR-Cas9 knock-in of the HiBiT tag; parental A375 from ATCC)
Outline: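 Luminescence from the Nano-Glo HiBiT lytic read-out gave % BRAF V600E remaining versus DMSO-treated tagged cells, with untagged A375 as background. Clone 1F10 cells (10,000/well, 24 h pre-culture) received compound at 1 μM–0.01 nM in half-log steps, 0.2% DMSO; curve fits gave DC50 at Y=50, plus observed Dmax.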

BRAF G469A = biological target: T3, BRAF G469A (Homo sapiens, UniProt P15056, G469A); experiment: BRAF HiBiT degradation assay, C-terminal HiBiT-tagged BRAF G469A overexpressed in HCT-116 BRAF−/− cells (clone 34), Nano-Glo HiBiT Lytic assay; details: BRAF G469A (Class 2), HCT-116 BRAF−/− cells; for DC50: DC50 at 50% degradation; for Dmax: observed Dmax relative to DMSO control
T3 construct: Horizon Discovery (HCT-116 BRAF−/− cells); host or cells: HCT-116 BRAF−/− cells, clone 34, lentiviral transduction
Outline: as §1

BRAF G466V = biological target: T4, BRAF G466V (Homo sapiens, UniProt P15056, G466V); experiment: BRAF HiBiT degradation assay, C-terminal HiBiT-tagged BRAF G466V overexpressed in HCT-116 BRAF−/− cells (clone 8), Nano-Glo HiBiT Lytic assay; details: BRAF G466V (Class 3), HCT-116 BRAF−/− cells; for DC50: DC50 at 50% degradation; for Dmax: observed Dmax relative to DMSO control
T4 construct: Horizon Discovery (HCT-116 BRAF−/− cells); host or cells: HCT-116 BRAF−/− cells, clone 8, lentiviral transduction
Outline: as §1

T4 sequence (P15056 whole entry G466V): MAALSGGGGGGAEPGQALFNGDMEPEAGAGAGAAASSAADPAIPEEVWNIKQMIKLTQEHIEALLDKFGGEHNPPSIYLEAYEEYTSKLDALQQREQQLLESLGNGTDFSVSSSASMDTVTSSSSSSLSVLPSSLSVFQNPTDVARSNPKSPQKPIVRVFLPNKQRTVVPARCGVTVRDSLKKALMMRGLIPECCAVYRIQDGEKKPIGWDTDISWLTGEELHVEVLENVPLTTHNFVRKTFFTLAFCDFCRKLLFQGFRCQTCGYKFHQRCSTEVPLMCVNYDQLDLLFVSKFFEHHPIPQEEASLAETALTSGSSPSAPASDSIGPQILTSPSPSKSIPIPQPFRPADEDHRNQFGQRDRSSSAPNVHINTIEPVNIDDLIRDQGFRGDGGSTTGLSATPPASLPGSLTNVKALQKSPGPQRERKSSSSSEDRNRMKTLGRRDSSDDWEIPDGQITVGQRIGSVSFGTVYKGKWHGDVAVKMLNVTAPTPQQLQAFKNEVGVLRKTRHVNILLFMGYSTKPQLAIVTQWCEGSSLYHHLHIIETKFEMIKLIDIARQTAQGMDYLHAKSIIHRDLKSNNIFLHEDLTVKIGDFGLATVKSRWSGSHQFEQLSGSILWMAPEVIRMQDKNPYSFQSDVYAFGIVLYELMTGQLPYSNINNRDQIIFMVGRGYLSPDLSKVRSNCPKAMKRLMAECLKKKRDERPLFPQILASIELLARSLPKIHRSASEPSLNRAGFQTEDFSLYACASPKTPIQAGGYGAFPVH
T3 sequence (P15056 whole entry G469A): as the sequence (P15056 whole entry G466V) above, with V466G, G469A counted along it
T2 sequence (P15056 whole entry V600E, the tested form may be a part): as the sequence (P15056 whole entry G466V) above, with V466G, V600E counted along it
T1 sequence (P15056 whole entry D594G): as the sequence (P15056 whole entry G466V) above, with V466G, D594G counted along it

Row | Structure (SMILES) | DC50 (BRAF D594G) [µM] | Dmax (BRAF D594G) [%] | DC50 (BRAF V600E) [µM] | Dmax (BRAF V600E) [%] | DC50 (BRAF G469A) [µM] | Dmax (BRAF G469A) [%] | DC50 (BRAF G466V) [µM] | Dmax (BRAF G466V) [%]
1 | O=C1CCC(c2ccc(N3CCC(F)(CN4CCN(c5ccc(-n6cc(-c7cc(Cl)cc(NS(=O)(=O)N8CCCC8)c7F)c(-c7ccncc7)n6)cc5)CC4)CC3)cc2)C(=O)N1 (racemic) [Compound 284, Rac-N-{5-chloro-3-[1-(4-{4-[(1-{4-[(3R)-2,6-dioxopiperidin-3-yl]phenyl}-4-fluoropiperidin-4-yl)methyl]piperazin-1-yl}phenyl)-3-(pyridin-4-yl)-1H-pyrazol-4-yl]-2-fluorophenyl}pyrrolidine-1-sulfonamide] | < 0.01 | > 70 | 0.01 to 0.05 | > 70 | 0.01 to 0.05 | > 70 | < 0.01 | > 70
2 | O=C1CC[C@H](c2ccc(N3CCC(CN4CCN(c5ccc(-n6cc(-c7cc(C(F)F)cc(NS(=O)(=O)N8CCCC8)c7F)c(-c7ccncc7)n6)c(F)c5)CC4)CC3)cc2)C(=O)N1 [Compound 362, N-[5-(difluoromethyl)-3-[1-(4-{4-[(1-{4-[(3R)-2,6-dioxopiperidin-3-yl]phenyl}piperidin-4-yl)methyl]piperazin-1-yl}-2-fluorophenyl)-3-(pyridin-4-yl)-1H-pyrazol-4-yl]-2-fluorophenyl]pyrrolidine-1-sulfonamide] | < 0.01 | 30 to 70 | < 0.01 | > 70 | 0.01 to 0.05 | 30 to 70 | < 0.01 | > 70
3 | O=C1CC[C@H](c2ccc(N3CCC(CN4CCN(c5ccc(-n6cc(-c7cc(Cl)cc(NS(=O)(=O)N8CC[C@@H](F)C8)c7F)c(-c7ccncc7)n6)cc5)CC4)CC3)nc2)C(=O)N1 [Compound 264, (R)—N-(5-chloro-3-(1-(4-(4-((1-(5-((R)-2,6-dioxopiperidin-3-yl)pyridin-2-yl)piperidin-4-yl)methyl)piperazin-1-yl)phenyl)-3-(pyridin-4-yl)-1H-pyrazol-4-yl)-2-fluorophenyl)-3-fluoropyrrolidine-1-sulfonamide] | < 0.01 | > 70 | < 0.01 | > 70 | < 0.01 | > 70 | < 0.01 | > 70
4 | CCC(C)S(=O)(=O)Nc1cc(Cl)cc(-c2cn(-c3ccc(N4CCN(CC5CCN(c6ccc([C@@H]7CCC(=O)NC7=O)cn6)CC5)CC4)cc3)nc2-c2ccncc2)c1F (mixture of isomers) [Compound 329, Rac-(R)—N-(5-chloro-3-(1-(4-(4-((1-(5-((S)-2,6-dioxopiperidin-3-yl)pyridin-2-yl)piperidin-4-yl)methyl)piperazin-1-yl)phenyl)-3-(pyridin-4-yl)-1H-pyrazol-4-yl)-2-fluorophenyl)butane-2-sulfonamide] | < 0.01 | > 70 | < 0.01 | > 70 | 0.01 to 0.05 | > 70 | < 0.01 | > 70
5 | CCCS(=O)(=O)Nc1cccc(-c2nc(C3CCN(C(=O)C4CCN(C(=O)C5CCN(c6ccc(C7CCC(=O)NC7=O)cn6)CC5)CC4)CC3)sc2-c2ccnc(N)n2)c1F (racemic) [Compound 254, Rac-N-{3-[5-(2-aminopyrimidin-4-yl)-2-{1-[1-(1-{5-[(3R)-2,6-dioxopiperidin-3-yl]pyridin-2-yl}piperidine-4-carbonyl)piperidine-4-carbonyl]piperidin-4-yl}-1,3-thiazol-4-yl]-2-fluorophenyl}propane-1-sulfonamide] | < 0.01 | 30 to 70 | < 0.01 | > 70 | 0.01 to 0.05 | 30 to 70 | < 0.01 | > 70
